Test results taken from PubChem BioAssay (NCI).
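Tested at 5 concentrations; 48 h exposure; 96-well plates; endpoints linearly interpolated, else capped at highest concentration. TGI is the concentration that stops growth completely.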

Key:
Experiment in all cases: NCI anticancer screen, dose series, 48 h
[1] = test system: 786-0 renal
[2] = test system: A498 renal
[3] = test system: A549 NSCLC
[4] = test system: ACHN renal
[5] = test system: BT-549 breast
[6] = test system: CCRF-CEM leukemia
[7] = test system: COLO 205 colon
[8] = test system: DU-145 prostate
[9] = test system: EKVX NSCLC
[10] = test system: HCC-2998 colon
[11] = test system: HCT-116 colon
[12] = test system: HCT-15 colon
[13] = test system: HL-60(TB) leukemia
[14] = test system: HOP-62 NSCLC
[15] = test system: HS 578T breast
[16] = test system: HT29 colon
[17] = test system: IGROV1 ovarian
[18] = test system: K-562 leukemia
[19] = test system: KM12 colon
[20] = test system: LOX IMVI melanoma
[21] = test system: M14 melanoma
[22] = test system: MALME-3M melanoma
[23] = test system: MCF7 breast
[24] = test system: MDA-MB-231 breast
[25] = test system: MDA-MB-435
[26] = test system: MDA-N
[27] = test system: MOLT-4 leukemia
[28] = test system: NCI-H226 lung
[29] = test system: NCI-H23 lung
[30] = test system: NCI-H460 lung
[31] = test system: NCI-H522 lung
[32] = test system: NCI/ADR-RES ovarian
[33] = test system: OVCAR-3 ovarian
[34] = test system: OVCAR-4 ovarian
[35] = test system: OVCAR-5 ovarian
[36] = test system: OVCAR-8 ovarian
[37] = test system: PC-3 prostate
[38] = test system: RXF 393 renal
[39] = test system: SF-268 CNS
[40] = test system: SF-295 CNS
[41] = test system: SF-539 CNS
[42] = test system: SK-MEL-2 melanoma
[43] = test system: SK-MEL-28 melanoma
[44] = test system: SK-MEL-5 melanoma
[45] = test system: SK-OV-3 ovarian
[46] = test system: SN12C renal
[47] = test system: SNB-19 CNS
[48] = test system: SNB-75 CNS
[49] = test system: SR leukemia
[50] = test system: SW-620 colon
[51] = test system: T-47D breast
[52] = test system: TK-10 renal
[53] = test system: U251 CNS
[54] = test system: UACC-257 melanoma
[55] = test system: UACC-62 melanoma
[56] = test system: UO-31 renal
[57] = test system: CAKI-1 renal
[58] = test system: HOP-92 NSCLC
[59] = test system: RPMI-8226 leukemia

`CCN(CC)C(=S)N/N=C/c1cc([N+](=O)[O-])ccc1O` showed a TGI [1] of 68.9 µM, a TGI [2] of 7.47 µM and a TGI [3] of 54 µM. The TGI [4] was 25.1 µM, the TGI [5] was 33.2 µM and the TGI [6] was 8.06 µM. It also gave a TGI [7] of 18.1 µM, a TGI [8] greater than 100 µM and a TGI [9] of 78.9 µM. It also gave a TGI [10] of 40.3 µM, a TGI [11] of 12 µM and a TGI [12] of 31.6 µM. For the same compound, the TGI [13] was 6.08 µM, the TGI [14] was greater than 100 µM and the TGI [15] was 95.7 µM. For the same compound, the TGI [16] was greater than 100 µM, the TGI [17] was 16.7 µM and the TGI [18] was 18.1 µM. The TGI [19] was greater than 100 µM, the TGI [20] was 18.5 µM and the TGI [21] was 29.1 µM. It also gave a TGI [22] of 23.3 µM, a TGI [23] of 7.05 µM and a TGI [24] of 30.4 µM. For the same compound, the TGI [25] was 76.9 µM, the TGI [26] was greater than 100 µM and the TGI [27] was 25.1 µM. It also gave a TGI [28] of 12.6 µM, a TGI [29] of 28.9 µM and a TGI [30] of 24.8 µM. It also gave a TGI [31] of 17.6 µM, a TGI [32] of 13.9 µM and a TGI [33] of 13.3 µM. For the same compound, the TGI [34] was 19.1 µM, the TGI [35] was greater than 100 µM and the TGI [36] was 45.3 µM. The TGI [37] was 78 µM, the TGI [38] was 51.3 µM and the TGI [39] was 57.5 µM. The TGI [40] was greater than 100 µM, the TGI [41] was 28.3 µM and the TGI [42] was 65.6 µM. It also gave a TGI [43] greater than 100 µM, a TGI [44] of 8.94 µM and a TGI [45] of 16.3 µM. For the same compound, the TGI [46] was 25.6 µM, the TGI [47] was 73 µM and the TGI [48] was 72.7 µM. The TGI [49] was 25.6 µM, the TGI [50] was greater than 100 µM and the TGI [51] was 39.4 µM. For the same compound, the TGI [52] was 37.1 µM, the TGI [53] was greater than 100 µM and the TGI [54] was 32.2 µM. For the same compound, the TGI [55] was 15.4 µM and the TGI [56] was greater than 100 µM.

`C(=C(c1ccc(OC2CCCCO2)cc1)c1ccc(OC2CCCCO2)cc1)c1ccccc1` (centres undefined) gave a TGI [1] of 1.62 µM, a TGI [2] of 2.64 µM and a TGI [3] of 1.69 µM. For the same compound, the TGI [4] was 2.24 µM, the TGI [5] was 1.5 µM and the TGI [57] was 1.92 µM. It also gave a TGI [6] of 6.66 µM, a TGI [7] of 1.6 µM and a TGI [8] of 2.11 µM. The TGI [9] was 1.83 µM, the TGI [10] was 1.97 µM and the TGI [11] was 1.64 µM. For the same compound, the TGI [13] was 1.19 µM, the TGI [14] was 2.3 µM and the TGI [58] was 1.96 µM. The TGI [15] was 4.44 µM, the TGI [16] was 1.28 µM and the TGI [17] was 1.71 µM. The TGI [18] was 2.01 µM, the TGI [19] was 0.677 µM and the TGI [20] was 1.14 µM. It also gave a TGI [21] of 2 µM, a TGI [22] of 2.24 µM and a TGI [23] of 1.43 µM. For the same compound, the TGI [24] was 1.52 µM, the TGI [25] was 1.7 µM and the TGI [26] was 1.75 µM. For the same compound, the TGI [27] was greater than 100 µM, the TGI [28] was 3.17 µM and the TGI [29] was 2.24 µM. For the same compound, the TGI [30] was 1.79 µM, the TGI [31] was 2.4 µM and the TGI [32] was 2.92 µM. It also gave a TGI [33] of 1.75 µM, a TGI [34] of 1.75 µM and a TGI [35] of 2.25 µM. For the same compound, the TGI [36] was 2.64 µM, the TGI [37] was 1.59 µM and the TGI [38] was 2.25 µM. The TGI [39] was 5.31 µM, the TGI [40] was 2.51 µM and the TGI [41] was 3.24 µM. For the same compound, the TGI [42] was 2.77 µM, the TGI [43] was 2.41 µM and the TGI [44] was 1.78 µM. The TGI [45] was 2.64 µM, the TGI [46] was 2.47 µM and the TGI [47] was 2.54 µM. The TGI [48] was 2.13 µM, the TGI [50] was 1.62 µM and the TGI [51] was 2.14 µM. It also gave a TGI [52] of 2.35 µM, a TGI [53] of 2.34 µM and a TGI [54] of 1.66 µM. The TGI [55] was 1.98 µM and the TGI [56] was 2.26 µM.

`NC(=O)C(=Cn1c(=S)[nH]c2ccc([N+](=O)[O-])cc21)C(N)=O` showed a TGI [1] greater than 100 µM, a TGI [2] greater than 100 µM and a TGI [3] greater than 100 µM. It also gave a TGI [4] greater than 100 µM, a TGI [5] greater than 100 µM and a TGI [57] greater than 100 µM. The TGI [7] was greater than 100 µM, the TGI [8] was greater than 100 µM and the TGI [9] was greater than 100 µM. It also gave a TGI [10] greater than 100 µM, a TGI [11] greater than 100 µM and a TGI [12] greater than 100 µM. The TGI [13] was greater than 100 µM, the TGI [14] was greater than 100 µM and the TGI [58] was greater than 100 µM. The TGI [16] was greater than 100 µM, the TGI [17] was greater than 100 µM and the TGI [19] was greater than 100 µM. The TGI [20] was greater than 100 µM, the TGI [21] was greater than 100 µM and the TGI [24] was greater than 100 µM. The TGI [25] was greater than 100 µM, the TGI [26] was greater than 100 µM and the TGI [27] was greater than 100 µM. It also gave a TGI [28] greater than 100 µM, a TGI [29] greater than 100 µM and a TGI [30] greater than 100 µM. It also gave a TGI [32] greater than 100 µM, a TGI [33] greater than 100 µM and a TGI [34] greater than 100 µM. For the same compound, the TGI [35] was greater than 100 µM, the TGI [36] was greater than 100 µM and the TGI [38] was greater than 100 µM. It also gave a TGI [39] greater than 100 µM, a TGI [40] greater than 100 µM and a TGI [41] greater than 100 µM. The TGI [42] was greater than 100 µM, the TGI [43] was greater than 100 µM and the TGI [44] was greater than 100 µM. For the same compound, the TGI [45] was greater than 100 µM, the TGI [46] was greater than 100 µM and the TGI [47] was greater than 100 µM. It also gave a TGI [48] greater than 100 µM, a TGI [50] greater than 100 µM and a TGI [51] greater than 100 µM. For the same compound, the TGI [52] was greater than 100 µM, the TGI [53] was greater than 100 µM and the TGI [54] was greater than 100 µM. For the same compound, the TGI [55] was greater than 100 µM and the TGI [56] was greater than 100 µM.

In the case of `Cn1c(=O)c2c(nc3n2CC(C(=O)O)N3)n(C)c1=O` (centres undefined), the TGI [1] is reported as greater than 100 µM, the TGI [2] is reported as greater than 100 µM and the TGI [3] is reported as greater than 100 µM. The TGI [4] was greater than 100 µM, the TGI [5] was greater than 100 µM and the TGI [57] was greater than 100 µM. The TGI [7] was greater than 100 µM, the TGI [8] was greater than 100 µM and the TGI [9] was greater than 100 µM. The TGI [10] was greater than 100 µM, the TGI [11] was greater than 100 µM and the TGI [12] was greater than 100 µM. The TGI [13] was greater than 100 µM, the TGI [14] was greater than 100 µM and the TGI [58] was greater than 100 µM. For the same compound, the TGI [15] was greater than 100 µM, the TGI [16] was greater than 100 µM and the TGI [17] was greater than 100 µM. The TGI [18] was greater than 100 µM, the TGI [19] was greater than 100 µM and the TGI [20] was greater than 100 µM. It also gave a TGI [21] greater than 100 µM, a TGI [22] greater than 100 µM and a TGI [23] greater than 100 µM. For the same compound, the TGI [24] was greater than 100 µM, the TGI [25] was greater than 100 µM and the TGI [26] was greater than 100 µM. The TGI [27] was 0.242 µM, the TGI [28] was greater than 100 µM and the TGI [29] was greater than 100 µM. The TGI [30] was greater than 100 µM, the TGI [31] was greater than 100 µM and the TGI [32] was greater than 100 µM. The TGI [33] was greater than 100 µM, the TGI [34] was greater than 100 µM and the TGI [35] was greater than 100 µM. The TGI [36] was greater than 100 µM, the TGI [37] was greater than 100 µM and the TGI [59] was greater than 100 µM. For the same compound, the TGI [38] was greater than 100 µM, the TGI [39] was greater than 100 µM and the TGI [40] was greater than 100 µM. It also gave a TGI [41] greater than 100 µM, a TGI [42] greater than 100 µM and a TGI [43] greater than 100 µM. The TGI [44] was greater than 100 µM, the TGI [45] was greater than 100 µM and the TGI [46] was greater than 100 µM. It also gave a TGI [47] greater than 100 µM, a TGI [48] greater than 100 µM and a TGI [50] greater than 100 µM. The TGI [51] was greater than 100 µM, the TGI [52] was greater than 100 µM and the TGI [53] was greater than 100 µM. The TGI [54] was greater than 100 µM, the TGI [55] was greater than 100 µM and the TGI [56] was greater than 100 µM.
